# Legend:
# [1] = human
# [2] = Highest frequency of moderate liver toxicity observed during clinical trials, expressed as a percentage. [column '% BIOL' in source]; conditions: human
# [3] = human; remark: listed apart in the source
# [4] = human, serum, 4383 h
# [5] = human; remark: listed apart in the source
# [6] = human; remark: listed apart in the source
# [7] = human; remark: listed apart in the source
# [8] = human; remark: listed apart in the source
# [9] = human; remark: listed apart in the source
# [10] = human; remark: listed apart in the source
# [11] = human, serum
# [12] = human; remark: listed apart in the source
# [13] = Highest frequency of acute liver toxicity observed during clinical trials, expressed as a percentage. [column '% AIGUE' in source]; conditions: human
# 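For Hepatotoxicity (association with vascular disease) in this document: count of indexed literature references reporting vascular liver injury in humans, e.g. peliosis hepatitis, hepatic veno-occlusive disease or Budd-Chiari syndrome.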
# 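For Hepatotoxicity (benign tumour) in this document: value is a count of indexed literature references citing a benign tumour confirmed by histopathology.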
# 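For Hepatotoxicity (choleostasis) in this document: human cholestatic liver injury, shown by histopathology or by peak ALT or AST elevation over alkaline phosphatase ratio below 2, value counts indexed literature reports.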
# 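For Hepatotoxicity (chronic liver disease) in this document: chronic liver injury confirmed by histopathology or persistently raised serum aminotransferase activity beyond 6 months, value given as the count of indexed literature references.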
# 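For Hepatotoxicity (cirrhosis) in this document: value is a count of indexed literature references reporting cirrhosis confirmed by histopathology.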
# 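For Hepatotoxicity (cytolytic) in this document: human cytolytic liver injury, shown by histopathology or by a ratio above 5 of peak ALT or AST elevation to alkaline phosphatase elevation, value counts indexed references.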
# 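For Hepatotoxicity (granulomatous hepatitis) in this document: value is a count of indexed literature references reporting granulomatous liver disease confirmed by histopathology.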
# 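For Hepatotoxicity (malignant tumour) in this document: malignant tumour confirmed by histopathology, value gives the count of indexed literature references reporting it.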
# 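For Hepatotoxicity (severe hepatitis) in this document: human clinical data: severe hepatitis, meaning potentially life-threatening liver failure or clinically observed cases, the value counts how many indexed literature references report it.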
# 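For Hepatotoxicity (steatosis) in this document: steatosis confirmed by histopathology, value is the count of indexed references.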
Compound,Hepatotoxicity (malignant tumour) [1],Hepatotoxicity (moderate) ([2]; Liver) [%],Hepatotoxicity (benign tumour) [3],Hepatotoxicity (chronic liver disease) [4],Hepatotoxicity (cytolytic) [5],Hepatotoxicity (granulomatous hepatitis) [6],Hepatotoxicity (severe hepatitis) ([7]; Liver),Hepatotoxicity (steatosis) [8],Hepatotoxicity (cirrhosis) [9],Hepatotoxicity (association with vascular disease) [10],Hepatotoxicity (moderate) [11],Hepatotoxicity (choleostasis) [12],Hepatotoxicity (cytolytic) ([5]; Liver),Hepatotoxicity (granulomatous hepatitis) ([6]; Liver),Hepatotoxicity (choleostasis) ([12]; Liver),Hepatotoxicity (moderate) [2] [%],Hepatotoxicity (severe hepatitis) [7],Hepatotoxicity (acute) [13] [%],Hepatotoxicity (acute) ([13]; Liver) [%]
Nc1ccc(S(=O)(=O)Nc2ccccn2)cc1 [SULFAPYRIDINE],0,0,0,0,0,0,0,0,0,0,0,0,,,,,,,
C#C[C@]1(O)CC[C@H]2[C@@H]3CCC4=CC(=O)CC[C@@H]4[C@H]3CC[C@@]21CC [LEVONORGESTREL],0,0.4,0,0,,,0,0,0,0,1,,0,0,0,,,,
CC1CS(=O)(=O)CCN1/N=C/c1ccc([N+](=O)[O-])o1 (stereo not drawn) [NIFURTIMOX],0,0,0,0,,,0,0,0,0,0,,0,0,0,,,,
NC(=O)c1csc([C@@H]2O[C@H](CO)[C@@H](O)[C@H]2O)n1 [TIAZOFURIN],0,,0,0,0,0,,0,0,0,7,0,,,,62.5,0,0,
C#CC(C)(O)CC (stereo not drawn) [MEPARFYNOL],0,,0,0,0,0,,0,0,0,0,1,,,,0,0,,
CC(C)(C(=O)O)c1ccc(C(O)CCCN2CCC(C(O)(c3ccccc3)c3ccccc3)CC2)cc1 (stereo not drawn) [FEXOFENADINE],0,1.8,0,0,,,0,0,0,0,1,,0,0,0,,,,
O=c1oc2ccccc2c(O)c1Cc1c(O)c2ccccc2oc1=O [DICUMAROL],0,,0,0,0,0,,0,0,0,3,0,,,,0,0,,
CC(C)(C)NCC(O)c1ccc(O)c(CO)c1 (stereo not drawn) [ALBUTEROL],0,0,0,0,,,0,0,0,0,0,,0,0,0,,,,4
Oc1ncc(N(CCCl)CCCl)c(O)n1 [URACIL MUSTARD],0,0,0,1,,,0,0,0,0,0,,1,0,0,,,,
CC(=O)NC[C@H]1CN(c2ccc(N3CCOCC3)c(F)c2)C(=O)O1 [LINEZOLID],0,,0,0,0,0,,0,0,0,1,0,,,,1,0,,
CC(C)NCC(O)COc1cccc2[nH]ccc12 (stereo not drawn) [PINDOLOL],0,,0,0,0,0,,0,0,0,1,0,,,,7,0,0,
CO[C@@]1(NC(=O)CSC(F)F)C(=O)N2C(C(=O)O)=C(CSc3nnnn3CCO)CO[C@@H]21 [FLOMOXEF],0,,0,0,0,0,,0,0,0,55,0,,,,33.3,0,0,
CCn1nc(C(=O)O)c(=O)c2cc3c(cc21)OCO3 [CINOXACIN],0,,0,0,0,0,,0,0,0,3,0,,,,1,0,0,
Oc1c(Cl)c(Cl)c(Cl)c(Cl)c1Cl [PENTACHLOROPHENOL],0,,0,1,0,0,,1,0,0,0,0,,,,0,0,,
